The target in this experiment is human PAD4 (hPAD4) (Homo sapiens, UniProt Q9UM07). Briefly: RFMS human PAD4 functional assay (rapid-fire mass spectrum). The following applies: 5 nM hPAD4 enzyme, 250 μM BAEE, 50 μM Calcium; 30 min preincubation, 90 min reaction at 37° C. It counts as biochemical. The essentials: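 PAD4 (10 nM) preincubated 30 min with compound (top final 50 μM), then BAEE substrate added in pH 7.5 HEPES buffer with DTT, 50 μM calcium, TPEN; 90 min at 37° C. After TCA quench, citrulline derivatized with phenyl glyoxal (4 mM final, 30 min, 37° C) and quantified by RapidFire MS against internal standard.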
human PAD4 (hPAD4), sequence (Q9UM07 whole entry): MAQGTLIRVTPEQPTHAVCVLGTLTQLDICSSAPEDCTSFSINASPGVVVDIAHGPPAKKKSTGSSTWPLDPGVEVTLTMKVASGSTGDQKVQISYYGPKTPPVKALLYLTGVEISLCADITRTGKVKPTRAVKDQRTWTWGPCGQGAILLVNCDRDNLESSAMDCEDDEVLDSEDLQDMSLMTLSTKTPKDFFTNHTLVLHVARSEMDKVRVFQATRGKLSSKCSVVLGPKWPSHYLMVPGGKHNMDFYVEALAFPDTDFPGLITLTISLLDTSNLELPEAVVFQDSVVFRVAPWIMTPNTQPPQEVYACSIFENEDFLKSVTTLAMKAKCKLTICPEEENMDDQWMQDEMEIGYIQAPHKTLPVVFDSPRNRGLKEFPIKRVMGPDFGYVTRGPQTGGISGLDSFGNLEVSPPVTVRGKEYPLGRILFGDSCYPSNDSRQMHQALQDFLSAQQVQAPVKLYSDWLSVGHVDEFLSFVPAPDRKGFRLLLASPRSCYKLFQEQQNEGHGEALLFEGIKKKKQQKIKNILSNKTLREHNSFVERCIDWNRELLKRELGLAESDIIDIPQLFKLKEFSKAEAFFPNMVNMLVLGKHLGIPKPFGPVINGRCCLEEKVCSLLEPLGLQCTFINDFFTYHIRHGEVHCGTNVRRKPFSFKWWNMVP

What is called IC50 is the concentration at which inhibition is half-maximal. Take `COc1cc(C(=O)N2CC3CCC2[C@@H]3N)cc2nc(-c3cc4ccccc4n3CC3CC3)n(CCc3cnn(C)c3)c12` (stereo partly drawn) [Example 511, (7R)-2-{2-[1-(cyclopropylmethyl)-1H-indol-2-yl]-7-methoxy-1-[2-(1-methyl-1H-pyrazol-4-yl)ethyl]-1H-l,3-benzodiazole-5-carbonyl}-2-azabicyclo[2.2.1]heptan-7-amine]: the concentration for half-maximal inhibition (IC50) is 338 nM.

As to `COc1cc(C(=O)N2CC3CCC2[C@@H]3N)cc2nc(-c3cc4ccccc4n3C)n(CC3CN(C(=O)c4ccc(C#N)cc4)C3)c12` (stereo partly drawn) [Example 178, 4-[3-({5-[(7R)-7-amino-2-azabicyclo[2.2.1]heptane-2-carbonyl]-7-methoxy-2-(1-methyl-1H-indol-2-yl)-1H-1,3-benzodiazol-1-yl}methyl)azetidine-1-carbonyl]benzonitrile], the IC50 was 86 nM.

Turning to `COc1cc(C(=O)N2C[C@H]3CC[C@@H]2[C@@H]3N)cc2nc(-c3cc4cccnc4n3CC3CC3)n(CC3CCN(c4ccncn4)CC3)c12` [Example 217, (1R,4R,7R)-2-{2-[1-(cyclopropylmethyl)-1H-pyrrolo[2,3-b]pyridin-2-yl]-7-methoxy-1-{[1-(pyrimidin-4-yl)piperidin-4-yl]methyl}-1H-1,3-benzodiazole-5-carbonyl}-2-azabicyclo[2.2.1]heptan-7-amine], the IC50 was 56 nM.

`COc1cc(C(=O)N2CC3CCC2[C@@H]3N)cc2nc(-c3cccn3CC3CC3)n(CC3CN(c4cncc(C#N)c4)C3)c12` (stereo partly shown) [Example 317]: the 50% inhibitory concentration (IC50) came to 1190 nM.

On to `COc1cc(C(=O)N2CC3CCC2[C@@H]3N)cc2nc(-c3cc4cccnc4n3CC3CC3)n(Cc3cnn(-c4cncc(F)c4)c3)c12` (stereo partly drawn) [Example 372, (7R)-2-{2-[1-(cyclopropylmethyl)-1H-pyrrolo[2,3-b]pyridin-2-yl]-1-{[1-(5-fluoropyridin-3-yl)-1H-pyrazol-4-yl]methyl}-7-methoxy-1H-1,3-benzodiazole-5-carbonyl}-2-azabicyclo[2.2.1]heptan-7-amine], for which the IC50 stood at 32 nM.

Regarding `COc1cc(C(=O)N2C[C@H]3CC[C@@H]2[C@@H]3N)cc2nc(-c3cc4ccccc4n3CC3CC3)n(CC3CN(C(=O)c4ccc(O)cc4)C3)c12` [Example 140, 4-[3-({5-[(1R,4R,7R)-7-amino-2-azabicyclo[2.2.1]heptane-2-carbonyl]-2-[1-(cyclopropylmethyl)-1H-indol-2-yl]-7-methoxy-1H-1,3-benzodiazol-1-yl}methyl)azetidine-1-carbonyl]phenol], the half-inhibitory concentration (IC50) came out at 14 nM.

As for `COc1cc(C(=O)N2C[C@H](N)C[C@@H](F)C2)cc2nc(-c3cc4ccccc4n3CC3CC3)n(CC3CN(C(=O)c4cccc(F)c4)C3)c12` [Example 157, (3R,5R)-1-{2-[1-(cyclopropylmethyl)-1H-indol-2-yl]-1-{[1-(3-fluorobenzoyl)azetidin-3-yl]methyl}-7-methoxy-1H-1,3-benzodiazol-5-carbonyl}-5-fluoropiperidin-3-amine], the IC50 stood at 23 nM.

`COc1cc(C(=O)N2C[C@H]3CC[C@@H]2[C@@H]3N)cc2nc(-c3cc4ccccc4n3C)n(CC3CN(c4ncccn4)C3)c12` [Example 48, (1R,4R,7R)-2-[7-methoxy-2-(1-methyl-1H-indol-2-yl)-1-{[1-(pyrimidin-2-yl)azetidin-3-yl]methyl}-1H-1,3-benzodiazole-5-carbonyl]-2-azabicyclo[2.2.1]heptan-7-amine]: the IC50 was determined as 122 nM.

`COc1cc(C(=O)N2CC3CCC2[C@@H]3N)cc2nc(-c3cc4ccccc4n3CC3CC3)n(CC3CCS(=O)(=O)C3)c12` (mixture of isomers) [Example 258, rac-((7R)-7-amino-2-azabicyclo[2.2.1]heptan-2-yl)(2-(1-(cyclopropylmethyl)-1H-indol-2-yl)-1-((1,1-dioxidotetrahydrothiophen-3-yl)methyl)-7-methoxy-1H-benzo[d]imidazol-5-yl)methanone]: the IC50 was 43 nM.

With `COc1cc(C(=O)N2C[C@H](N)C[C@@H](F)C2)cc2nc(-c3cc4ccccc4n3CC3CC3)n(Cc3cn[nH]c3)c12` [Example 266, (3R,5R)-1-{2-[1-(cyclopropylmethyl)-1H-indol-2-yl]-7-methoxy-1-[(1H-pyrazol-4-yl)methyl]-1H-1,3-benzodiazole-5-carbonyl}-5-fluoropiperidin-3-amine], the IC50 was 82 nM.

On to `COc1cc(C(=O)N2CC3CCC2[C@@H]3N)cc2nc(-c3cc4ccccc4n3CC3CC3)n(CC3CN(C(=O)c4ccnc(C)c4)C3)c12` (stereo partly drawn) [Example 421, (7R)-2-{2-[1-(cyclopropylmethyl)-1H-indol-2-yl]-7-methoxy-1-{[1-(2-methylpyridine-4-carbonyl)azetidin-3-yl]methyl}-1H-1,3-benzodiazole-5-carbonyl}-2-azabicyclo[2.2.1]heptan-7-amine], for which the IC50 stood at 21 nM.

With `COc1cc(C(=O)N2CC3CCC2[C@@H]3N)cc2nc(-c3cc4cccnc4n3CC3CC3)n(C3CCN(c4ccnc(C)n4)CC3)c12` (stereo partly drawn) [Example 238, (1R.,4R,7R)-2-{2-[1-(cyclopropylmethyl)-1H-pyrrolo[2,3-b]pyridin-2-yl]-7-methoxy-1-[1-(2-methylpyrimidin-4-yl)piperidin-4-yl]-1H-1,3-benzodiazole-5-carbonyl}-2-azabicyclo[2.2.1]heptan-7-amine], the half-inhibitory concentration (IC50) is 922 nM.

With `N[C@@H]1C2CCC1N(C(=O)c1cc(F)c3c(c1)nc(-c1cc4cccnc4n1CC1CC1)n3CC1CN(C(=O)c3ccccc3)C1)C2` (stereo partly drawn) [Example 439, (7R)-2-{1-[(1-benozylazetidin-3-yl)methyl]-2-[1-(cyclopropylmethyl)-1H-pyrrolo[2,3-b]pyridin-2-yl]-7-fluoro-1H-1,3-benzodiazol-5-carbonyl}-2-azabicyclo[2.2.1]heptan-7-amine], the IC50 was 36 nM.

For the compound `COc1cc(C(=O)N2C[C@H]3CC[C@@H]2[C@@H]3N)cc2nc(-c3cc4cccnc4n3CC3CC3)n(CC3CN(C(=O)C#Cc4ccccc4)C3)c12` [Example 109, 1-[3-({5-[(1R,4R,7R)-7-amino-2-azabicyclo[2.2.1]heptane-2-carbonyl]-2-[1-(cyclopropylmethyl)-1H-pyrrolo[2,3-b]pyridin-2-yl]-7-methoxy-1H-1,3-benzodiazol-1-yl}methyl)azetidin-1-yl]-3-phenylprop-2-yn-1-one], the half-maximal inhibitory concentration (IC50) worked out at 41 nM.

As to `COC(=O)Cn1cc(Cn2c(-c3cc4cccnc4n3CC3CC3)nc3cc(C(=O)N4CC5CCC4[C@@H]5N)cc(OC)c32)cn1` (stereo partly drawn) [Example 411, methyl 2-[4-({5-[(7R)-7-amino-2-azabicyclo[2.2.1]heptane-2-carbonyl]-2-[1-(cyclopropylmethyl)-1H-pyrrolo[2,3-b]pyridin-2-yl]-7-methoxy-1H-1,3-benzodiazol-1-yl}methyl)-1H-pyrazol-1-yl]acetate], the IC50 stood at 55 nM.

Take `COc1cc(C(=O)N2C[C@H]3CC[C@@H]2[C@@H]3N)cc2nc(-c3cc4cccnc4n3CC3CC3)n(CC3CN(c4cncnc4C#N)C3)c12` [Example 46, 5-[3-({5-[(1R,4R,7R)-7-amino-2-azabicyclo[2.2.1]heptane-2-carbonyl]-2-[1-(cyclopropylmethyl)-1H-pyrrolo[2,3-b]pyridin-2-yl]-7-methoxy-1H-1,3-benzodiazol-1-yl}methyl)azetidin-1-yl]pyrimidine-4-carbonitrile]: the IC50 came out at 118 nM.

For `COc1cc(C(=O)N2CC3CCC2[C@@H]3N)cc2nc(-c3cc4cccnc4n3CC3CC3)n([C@H]3C[C@H](NS(C)(=O)=O)C3)c12` (stereo partly drawn) [Example 298, N-[(1r,3r)-3-{5-[(1R,4R,7R)-7-amino-2-azabicyclo[2.2.1]heptane-2-carbonyl]-2-[1-(cyclopropylmethyl)-1H-pyrrolo[2,3-b]pyridin-2-yl]-7-methoxy-1H-1,3-benzodiazol-1-yl}cyclobutyl]methanesulfonamide], the IC50 was 331 nM.

As for `COc1ccc2cc(-c3nc4cc(C(=O)N5C[C@H]6CC[C@@H]5[C@@H]6N)cc(OC)c4n3CC3CN(c4ccnc(C#N)n4)C3)n(CC3CC3)c2n1` [Example 2, 4-(3-((5-((1R,4R,7R)-7-amino-2-azabicyclo[2.2.1]heptane-2-carbonyl)-2-(1-(cyclopropylmethyl)-6-methoxy-1H-pyrrolo[2,3-b]pyridin-2-yl)-7-methoxy-1H-benzo[d]imidazol-1-yl)methyl)azetidin-1-yl)pyrimidine-2-carbonitrile], the half-maximal inhibitory concentration (IC50) is 49 nM.

Take `COc1cc(C(=O)N2C[C@H](N)C[C@@H](F)C2)cc2nc(-c3cc4ccccc4n3CC3CC3)n(CC3(F)CN(C(=O)c4ccccc4)C3)c12` [Example 425, (3R,5R)-1-{1-[(1-benzoyl-3-fluoroazetidin-3-yl)methyl]-2-[1-(cyclopropylmethyl)-1H-indol-2-yl]-7-methoxy-1H-1,3-benzodiazole-5-carbonyl}-5-fluoropiperidin-3-amine]: the 50% inhibitory concentration (IC50) turned out to be 27 nM.

For the compound `COc1cc(C(=O)N2CC3CCC2[C@@H]3N)cc2nc(-c3cc4ccccc4n3CC3CC3)n(CC3CN(C(=O)c4cnc(Cl)s4)C3)c12` (stereo partly drawn) [Example 414, (7R)-2-(1-{[1-(2-chloro-1,3-thiazole-5-carbonyl)azetidin-3-yl]methyl}-2-[1-(cyclopropylmethyl)-1H-indol-2-yl]-7-methoxy-1H-1,3-benzodiazole-5-carbonyl)-2-azabicyclo[2.2.1]heptan-7-amine], the concentration for half-maximal inhibition (IC50) worked out at 35 nM.

For `COc1cc(C(=O)N2CC3CCC2[C@@H]3N)cc2nc(-c3cc4cccnc4n3CC3CC3)n(Cc3cnn(C)c3C)c12` (stereo partly drawn) [Example 486, (7R)-2-{2-[1-(cyclopropylmethyl)-1H-pyrrolo[2,3-b]pyridin-2-yl]-l-[(1,5-dimethyl-1H-pyrazol-4-yl)methyl]-7-methoxy-1H-1,3-benzodiazole-5-carbonyl}-2-azabicyclo[2.2.1]heptan-7-amine], the IC50 stood at 45 nM.

`COc1cc(C(=O)N2C[C@H]3CC[C@@H]2[C@@H]3N)cc2nc(-c3cc4ccccc4n3CC3CC3)n(Cc3cccnc3)c12` [Example 246, (1R,4R,7R)-2-{2-[1-(cyclopropylmethyl)-1H-indol-2-yl]-7-methoxy-1-[(pyridin-3-yl)methyl]-1H-1,3-benzodiazole-5-carbonyl}-2-azabicyclo[2.2.1]heptan-7-amine]: the IC50 is 25 nM.

(Values after patent US12692254B2, “Benzimidazole inhibitors of PAD enzymes” (BRISTOL-MYERS SQUIBB COMPANY, priority 2018, dated 2026).)
